These results are taken from patent US20220144815A1, “1,3,4-OXADIAZOLES AND THEIR DERIVATIVES AS NEW ANTIFUNGAL AGENTS” (Bayer Aktiengesellschaft, priority 2018, published 2022).

The nature of one data set: Log P by HPLC on reversed phase columns, method [a] (EEC directive 79/831 Annex V.A8). The format is physicochemical.
Details: not given
The method, then:
Measurement of Log P values as provided herein was performed according to EEC directive 79/831 Annex V.A8 by HPLC (High Performance Liquid Chromatography) on reversed phase columns with the following methods: • ^[a] Log P value is determined by measurement of LC-UV, in an acidic range, with 0.1% formic acid in water and acetonitrile as eluent (linear gradient from 10% acetonitrile to 95% acetonitrile). • ^[b] Log P value is determined by measurement of LC-UV, in a neutral range, with 0.001 molar ammonium acetate solution in water and acetonitrile as eluent (linear gradient from 10% acetonitrile to 95% acetonitrile). • ^[c] Log P value is determined by measurement of LC-UV, in an acidic range, with 0.1% phosphoric acid and acetonitrile as eluent (linear gradient from 10% acetonitrile to 95% acetonitrile). If more than one Log P value is available within the same method, all the values are given and separated by “+”. Calibration was done with straight-chain alkan2-ones (with 3 to 16 carbon atoms) with known Log P values (measurement of Log P values using retention times with linear interpolation between successive alkanones). Lambda-max-values were determined using UV-spectra from 200 nm to 400 nm and the peak values of the chromatographic signals In table 1, the log P values were determined according to method [^a]. In table 2, the log P values were determined according to method [^a].
As for `CC(Nc1ncc(-c2nnc(C(F)F)o2)cn1)c1ccc(Cl)nc1` (racemic) [I.214, N-[(1RS)-1-(6-chloropyridin-3-yl)ethyl]-5-[5-(difluoromethyl)-1,3,4-oxadiazol-2-yl]pyrimidin-2-amine], the chromatographic logP is 2.27.

The data set is the same for the next values; noted with them: log P determined according to method [a] (HPLC on reversed phase columns).
For the compound `O=C(O)c1ccc(-c2nnc(C(F)F)o2)cc1` [Example I-001], the logP (as a rule, the decadic logarithm of the partition coefficient of the neutral form, usually between octanol and water) came to 1.66.
In the case of `CSc1ccc(-c2nnc(C(F)F)o2)cc1` [Example I-002], the lipophilicity (logP) is recorded as 2.75.
The same measure, in the same setting: the same measure for `COC(=O)c1ccc(-c2nnc(C(F)F)o2)cc1` [Example I-003]: 2.35.
Still for that read-out and setting: the same measure for `O=C(O)c1ccc(-c2nnc(C(F)(F)F)o2)cc1` [Example I-004]: 2.20.

Staying with this data set, now noted: reversed phase HPLC column; Method A: LC-UV, acidic range, 0.1% formic acid in water and acetonitrile; read-out: Log P.
On to `NNC(=O)c1cnc(NC2(c3ccccc3)CCC2)nc1` [2-[(1-phenylcyclobutyl)amino]pyrimidine-5-carbohydrazide], for which the chromatographic logP is 1.63.

Still in this data set, the particulars now being: reversed phase HPLC column; log P determined according to method [a] (HPLC on reversed phase columns); read-out: logP.
For the compound `CC(Nc1ncc(-c2nnc(C(F)F)o2)cn1)c1ccccc1F` (racemic) [I.124, 5-[5-(difluoromethyl)-1,3,4-oxadiazol-2-yl]-N-[(1RS)-1-(2-fluorophenyl)ethyl]pyrimidin-2-amine], the chromatographic logP was 2.89.
Regarding `CCCC(Nc1ncc(-c2nnc(C(F)F)o2)cn1)c1ccccc1` (racemic) [I.140, 5-[5-(difluoromethyl)-1,3,4-oxadiazol-2-yl]-N-[(1RS)-1-phenylbutyl]pyrimidin-2-amine], the chromatographic logP was 3.54.
The same measure, in the same setting: the figure for `CC(Nc1ncc(-c2nnc(C(F)F)o2)cn1)c1c(F)cccc1F` (racemic) [I.151, 5-[5-(difluoromethyl)-1,3,4-oxadiazol-2-yl]-N-[(1RS)-1-(2,6-difluorophenyl)ethyl]pyrimidin-2-amine] is 3.1.

Staying with this data set, now noted: reversed phase HPLC column; method [a], HPLC on reversed phase columns; read-out: logP.
With `CON(c1ncc(-c2nnc(C(F)F)o2)cn1)C(C)c1cccc(C(F)(F)F)c1` (racemic) [I.184, N-{5-[5-(difluoromethyl)-1,3,4-oxadiazol-2-yl]pyrimidin-2-yl}-O-methyl-N-{(1RS)-1-[3-(trifluoromethyl)phenyl]ethyl}hydroxylamine], the chromatographic logP amounted to 3.94.
With `CC(Nc1ncc(-c2nnc(C(F)F)o2)cn1)C1(C)CC1` (racemic) [I.186, 5-[5-(difluoromethyl)-1,3,4-oxadiazol-2-yl]-N-[(1RS)-1-(1-methylcyclopropyl)ethyl]pyrimidin-2-amine], the chromatographic logP was determined as 2.91.
In the case of `CC(Nc1ncc(-c2nnc(C(F)F)o2)cn1)c1cccnc1` (racemic) [I.188, 5-[5-(difluoromethyl)-1,3,4-oxadiazol-2-yl]-N-[(1RS)-1-(pyridin-3-yl)ethyl]pyrimidin-2-amine], the chromatographic logP was 0.74.
In the case of `CC(Nc1ncc(-c2nnc(C(F)F)o2)cn1)c1ccccn1` (racemic) [I.189, 5-[5-(difluoromethyl)-1,3,4-oxadiazol-2-yl]-N-[(1RS)-1-(pyridin-2-yl)ethyl]pyrimidin-2-amine], the chromatographic logP is 1.
Regarding `CC(Nc1ncc(-c2nnc(C(F)F)o2)cn1)c1ccncc1` (racemic) [I.190, 5-[5-(difluoromethyl)-1,3,4-oxadiazol-2-yl]-N-[(1RS)-1-(pyridin-4-yl)ethyl]pyrimidin-2-amine], the chromatographic logP worked out at 0.65.
The same measure, in the same setting: the figure for `CC(Nc1ncc(-c2nnc(C(F)F)o2)cn1)c1ncccn1` (racemic) [I.191, 5-[5-(difluoromethyl)-1,3,4-oxadiazol-2-yl]-N-[(1RS)-1-(pyrimidin-2-yl)ethyl]pyrimidin-2-amine] is 1.49; for `CC(Nc1ncc(-c2nnc(C(F)F)o2)cn1)c1cccs1` (racemic) [I.192, 5-[5-(difluoromethyl)-1,3,4-oxadiazol-2-yl]-N-[(1RS)-1-(2-thienyl)ethyl]pyrimidin-2-amine] it is 2.7; for `CC(Nc1ncc(-c2nnc(C(F)F)o2)cn1)C1CCCCC1` (racemic) [I.193, N-[(1RS)-1-cyclohexylethyl]-5-[5-(difluoromethyl)-1,3,4-oxadiazol-2-yl]pyrimidin-2-amine] it is 3.74.
Consider `CC(Nc1ncc(-c2nnc(C(F)F)o2)cn1)c1cscn1` (racemic) [I.194, 5-[5-(difluoromethyl)-1,3,4-oxadiazol-2-yl]-N-[(1RS)-1-(1,3-thiazol-4-yl)ethyl]pyrimidin-2-amine], for which the chromatographic logP is 1.8.
On the same count and under the same terms, the same measure for `Fc1ccc([C@H]2C[C@H]2Nc2ncc(-c3nnc(C(F)F)o3)cn2)cc1` (racemic) [I.206, 5-[5-(difluoromethyl)-1,3,4-oxadiazol-2-yl]-N-[rac-(1R,2R)-2-(4-fluorophenyl)cyclopropyl]pyrimidin-2-amine]: 2.97; for `COc1ccc(C(C)Nc2ncc(-c3nnc(C(F)F)o3)cn2)cc1` (racemic) [I.207, 5-[5-(difluoromethyl)-1,3,4-oxadiazol-2-yl]-N-[(1RS)-1-(4-methoxyphenyl)ethyl]pyrimidin-2-amine]: 2.75; for `COc1ccccc1C(C)Nc1ncc(-c2nnc(C(F)F)o2)cn1` (racemic) [I.209, 5-[5-(difluoromethyl)-1,3,4-oxadiazol-2-yl]-N-[(1RS)-1-(2-methoxyphenyl)ethyl]pyrimidin-2-amine]: 2.95.
As for `CC(Cc1ccc(F)cc1)Nc1ncc(-c2nnc(C(F)F)o2)cn1` (racemic) [I.210, 5-[5-(difluoromethyl)-1,3,4-oxadiazol-2-yl]-N-[(2RS)-1-(4-fluorophenyl)propan-2-yl]pyrimidin-2-amine], the chromatographic logP is 3.12.
For the compound `CC(CNc1ncc(-c2nnc(C(F)F)o2)cn1)c1ccc(F)cc1` (racemic) [I.211, 5-[5-(difluoromethyl)-1,3,4-oxadiazol-2-yl]-N-[(2RS)-2-(4-fluorophenyl)propyl]pyrimidin-2-amine], the chromatographic logP was determined as 3.13.
Turning to `CC(Nc1ncc(-c2nnc(C(F)F)o2)cn1)c1cccc(Cl)c1` (racemic) [I.213, N-[(1RS)-1-(3-chlorophenyl)ethyl]-5-[5-(difluoromethyl)-1,3,4-oxadiazol-2-yl]pyrimidin-2-amine], the chromatographic logP was determined as 3.2.
On the same count and under the same terms, the same measure for `CC(Nc1ncc(-c2nnc(C(F)F)o2)cn1)c1ccc(F)cc1F` (racemic) [I.215, 5-[5-(difluoromethyl)-1,3,4-oxadiazol-2-yl]-N-[(1RS)-1-(2,4-difluorophenyl)ethyl]pyrimidin-2-amine]: 3.01; for `FC(F)c1nnc(-c2cnc(NC3CCCC3c3ccccc3)nc2)o1` (racemic) [I.217, 5-[5-(difluoromethyl)-1,3,4-oxadiazol-2-yl]-N-[(1RS)-2-phenylcyclopentyl]pyrimidin-2-amine]: 3.44; for `CCC(Nc1ncc(-c2nnc(C(F)F)o2)cn1)c1ccc(Cl)cc1` (racemic) [I.230, N-[(1RS)-1-(4-chlorophenyl)propyl]-5-[5-(difluoromethyl)-1,3,4-oxadiazol-2-yl]pyrimidin-2-amine]: 3.58.
As to `CC(Nc1ncc(-c2nnc(C(F)F)o2)cn1)c1ccc2ccccc2c1` (racemic) [I.232, 5-[5-(difluoromethyl)-1,3,4-oxadiazol-2-yl]-N-[(1RS)-1-(2-naphthyl)ethyl]pyrimidin-2-amine], the chromatographic logP came to 3.45.
Regarding `CC(Nc1ncc(-c2nnc(C(F)F)o2)cn1)c1ccc2ccccc2n1` (racemic) [I.233, 5-[5-(difluoromethyl)-1,3,4-oxadiazol-2-yl]-N-[(1RS)-1-(quinolin-2-yl)ethyl]pyrimidin-2-amine], the chromatographic logP was determined as 2.04.
Turning to `Cc1ccc(C(C)(CO)Nc2ncc(-c3nnc(C(F)F)o3)cn2)cc1C` (racemic) [I.235, (2RS)-2-({5-[5-(difluoromethyl)-1,3,4-oxadiazol-2-yl]pyrimidin-2-yl}amino)-2-(3,4-dimethylphenyl)propan-1-ol], the chromatographic logP was determined as 2.68.
With `CC(Nc1ncc(-c2nnc(C(F)F)o2)cn1)c1cccc(C(F)(F)F)c1` (racemic) [I.239, 5-[5-(difluoromethyl)-1,3,4-oxadiazol-2-yl]-N-{(1RS)-1-[3-(trifluoromethyl)phenyl]ethyl}pyrimidin-2-amine], the chromatographic logP came out at 3.37.
For `CC(Nc1ncc(-c2nnc(C(F)F)o2)cn1)c1ccccc1C(F)(F)F` (racemic) [I.240, 5-[5-(difluoromethyl)-1,3,4-oxadiazol-2-yl]-N-{(1RS)-1-[2-(trifluoromethyl)phenyl]ethyl}pyrimidin-2-amine], the chromatographic logP stood at 3.42.
As to `FC(F)c1nnc(-c2cnc(NC(Cc3ccccc3)c3ccccc3)nc2)o1` (racemic) [I.245, 5-[5-(difluoromethyl)-1,3,4-oxadiazol-2-yl]-N-[(1RS)-1,2-diphenylethyl]pyrimidin-2-amine], the chromatographic logP was found to be 3.68.
For the compound `CC(Nc1ncc(-c2nnc(C(F)F)o2)cn1)c1cccc(OC(F)(F)F)c1` (racemic) [I.257, 5-[5-(difluoromethyl)-1,3,4-oxadiazol-2-yl]-N-{(1RS)-1-[3-(trifluoromethoxy)phenyl]ethyl}pyrimidin-2-amine], the chromatographic logP was determined as 3.53.
The same measure, in the same setting: the same measure for `CCC(Nc1ncc(-c2nnc(C(F)F)o2)cn1)c1ccccc1Br` (racemic) [I.260, N-[(1RS)-1-(2-bromophenyl)propyl]-5-[5-(difluoromethyl)-1,3,4-oxadiazol-2-yl]pyrimidin-2-amine]: 3.64.
